According to patent publication EP0562497A1, “1 alpha-hydroxy vitamins D7 and D4' processes for the preparation thereof and pharmaceutical compositions” (NISSHIN FLOUR MILLING CO., LTD., priority 1992, dated 1993):

Test system: Female Wistar rats
Test: Activity test in ovariectomized, right sciatic nerve amputated rats: femur bone density and serum calcium after 6 weeks of oral administration
Assay type: in vivo
Conditions: for Serum calcium concentration / Bone density: 5 days per week for 6 weeks; for Serum calcium concentration: blood drawn the day after final administration; for Bone density: right femur, ash weight/volume, ovariectomy and sciatic nerve amputation; for increase in bone density / increase in serum calcium concentration: in words, compared with known 1α-hydroxy vitamin D₃, summary of Table 1
From the text: Seventy two rats were subjected to bilateral ovariectomy and right sciatic nerve amputation. Rats were divided into 9 groups of eight animals each. Another group of eight rats was subjected to sham operation. Over a period of 6 weeks after operation, each group was orally administered either 1α-hdyroxy vitamin D₃, 1α-hydroxy vitamin D₇ or 1α-hydroxy vitamin D₄ dissolved in 0.5% ethanol/porpyleneglycol (vehicle) at the frequency of 5 days per week. The sham operated group and control group were orally administered the vehicle alone. The next day after final administration, rats were killed, blood was drawn from abdominal cave and right femur was extracted. The bone volume of femur was measured in accordance with Archimedes' principle. After heat treatment at 700°C for 24 hrs, the weight of bone ash was measured. From these measured values, the bone density (ash weight/volume) of each femur was calculated. Serum calcium concentration was determined according to usual method.

Work on `C=C1/C(=C\C=C2/CCC[C@]3(C)[C@@H]([C@H](C)CC[C@@H](C)C(C)C)CC[C@@H]23)C[C@@H](O)C[C@@H]1O` [1α-OH-D7, 1α-hydroxy vitamin D₇] yielded a Serum calcium concentration (0.5 µg/kg/day oral) of 10.5 ± 0.1 mg/dL, a Bone density (0.5 µg/kg/day oral) of 0.581±0.004 mg/mm^3 and a Serum calcium concentration (2.5 µg/kg/day oral) of 10.7 ± 0.3 mg/dL. For the same compound, the Bone density (2.5 µg/kg/day oral) was 0.585±0.007 mg/mm^3, the Serum calcium concentration (12.5 µg/kg/day oral) was 10.9 ± 0.5 mg/dL and the Bone density (12.5 µg/kg/day oral) was 0.589±0.004 mg/mm^3. For the same compound, the “increase in bone density” value was “much greater increase in bone density” and the “increase in serum calcium concentration” value was “lesser increase in serum calcium concentration”.

For `C=C1/C(=C\C=C2/CCC[C@]3(C)[C@@H]([C@H](C)CC[C@H](C)C(C)C)CC[C@@H]23)C[C@@H](O)C[C@@H]1O` [1α-OH-D4, 1α-hydroxy vitamin D₄], the Serum calcium concentration (0.5 µg/kg/day oral) was 10.5 ± 0.2 mg/dL, the Bone density (0.5 µg/kg/day oral) was 0.576±0.006 mg/mm^3 and the Serum calcium concentration (2.5 µg/kg/day oral) was 11.0 ± 0.4 mg/dL. For the same compound, the Bone density (2.5 µg/kg/day oral) was 0.583 ± 0.003 mg/mm^3, the “increase in bone density” value was “much greater increase in bone density” and the “increase in serum calcium concentration” value was “lesser increase in serum calcium concentration”.

In the case of `C=C1/C(=C\C=C2/CCC[C@]3(C)[C@@H]([C@H](C)CCCC(C)C)CC[C@@H]23)C[C@@H](O)C[C@@H]1O` [1α-OH-D3, 1α-hydroxy vitamin D₃, reference compound], the Serum calcium concentration (0.02 µg/kg/day oral) is reported as 10.8 ± 0.1 mg/dL, the Bone density (0.02 µg/kg/day oral) is reported as 0.556±0.005 mg/mm^3 and the Serum calcium concentration (0.1 µg/kg/day oral) is reported as 11.0 ± 0.1 mg/dL. The Bone density (0.1 µg/kg/day oral) was 0.545±0.007 mg/mm^3, the Serum calcium concentration (0.5 µg/kg/day oral) was 12.4 ± 0.2 mg/dL and the Bone density (0.5 µg/kg/day oral) was 0.560±0.006 mg/mm^3.
